From patent US11478466B2, “Small molecule promoting osteoblast differentiation” (Cornell University, priority 2019, dated 2022)

How the values were obtained:
[1] = tested on: p38 MAPK; experiment: Western blotting of p38 MAPK in BRITER cells; assay type: cell-based, mouse; conditions: BMP-2/BMP-4 repression by tamoxifen
Method: Cells were maintained in DMEM with 10% FBS. For analysis of DIPQUO effects independent of BMP signaling, BMP-2 and BMP-4 knockdown was achieved by treating cells overnight with 1 μM 4-hydroxytamoxifen (4-OHT), followed by continued maintenance in 1 μM 4-OHT. Cells were serum-starved for at least 6 hours before treatment with recombinant BMP protein or DIPQUO as noted in figure legends.
Whole cell extracts were collected from C2C12 or BRITER cells in complete lysis buffer (20 mM Tris, 150 mM NaCl, 50 mM NaF, 1% NP40 substitute, HALT protease inhibitor cocktail (ThermoScientific). Proteins were resolved by electrophoresis on pre-cast 10% NuPage Bis-Tris gels (Invitrogen) and transferred to PVDF membranes (Bio-Rad). Membranes were blocked in 5% BSA-TBS-0.5% Tween-20 for 15 minutes, then incubated at 4° overnight with primary antibodies. Antibodies used were: rabbit anti-phospho-p38 MAPK (cat. no. 9211), anti-p38 MAPK XP (8690), anti-phospho-SMAD1/5 (9516), anti-SMAD1 XP (6944), anti-phospho-SMAD2/3 (8828), anti-SMAD2/3 XP (8685), anti-phospho-JNK (4668), anti-SAPK/JNK (9252), anti-phospho-Akt XP (4060), pan anti-Akt (4691), anti-phospho ERK p42/p44 (4377), anti-ERK p42/p44 (9102), anti-phospho-MKK3/6 (12280), anti-MKK3 (8535), anti-phospho-TAK1 (4531), anti-TAK1 (5206), anti-HA (3274), and anti-FLAG (14793); all from Cell Signaling); and mouse anti-p38α (cat. no. […]

[2] = tested on: alkaline phosphatase (ALP); experiment: Flow cytometric analysis of ALP-positive C2C12 cell population; assay type: cell-based, mouse; conditions: C2C12, day 2; baseline approximately 4% in DMSO-treated cells
Method: C2C12 cells were treated for 2 days with 10 μM DIPQUO or structural analogs, 1 ng/ml rhBMP4, or with inhibitors as noted in figure legends, and then fixed briefly in 70% acetone/10% formaldehyde/20% citrate. Staining was achieved using the leukocyte alkaline phosphatase kit (Sigma 86R-1KT) according to the manufacturer's instructions. Expression of ALP was confirmed and quantified by flow cytometric analysis, using an Accuri C6 flow cytometer. Briefly, control- or DIPQUO-treated C2C12 cells were detached and harvested on day 2 using PBS-based enzyme-free cell detachment solution (ThermoFisher). 2×10^5 cells were incubated on ice for 30 minutes with 10 μl APC-conjugated ALPL antibody (R&D Systems), and washed in ice-cold PBS before analysis. Live cells were gated and analyzed in CFlow Plus software and then data was converted to FlowJo to achieve publication-level resolution. […] After an additional 3 days, cells were either fixed and stained for ALP expression or analyzed for ALP activity using the AttoPhos Substrate kit. Hemagglutinin and FLAG epitope-tagged MKK3 (pMT2-HA-MKK3) and MKK6 (pcDNA3-FLAG-MKK6) constructs were obtained from Addgene and transfected into C2C12 cells using Lipofectamine LTX with Plus Reagent (ThermoFisher) according to manufacturer's instructions and cell extracts analyzed for protein expression and activity as described below.

Cc1cc(C)c2[nH]c(=O)c(-c3[nH]cnc3-c3ccccc3)cc2c1 [RU-0226606, 6,8-dimethyl-3-(4-phenyl-1H-imidazol-5-yl)quinolin-2(1H)-one]
p38 MAPK activation in BRITER cells [1]: maintained the ability to activate p38 MAPK even under conditions of BMP repression | ALP-expressing fraction of the cell culture (flow cytometry) [2]: > 30%
